Values joined by “and” are separate entries in the source; they are usually repeats but may differ in a detail not shown here. Identical values can stand only once. In the oligonucleotide strings, read from the 5' end, every base follows the letter of its sugar. An asterisk marks phosphorothioate; unmarked linkages are phosphodiester. Other units and linkages are bracketed, terminal groups are in braces. A string of capitals states the bases alone. e = 2'-O-(2-methoxyethyl) (MOE); [5mC] = 5-methylcytosine; d = 2'-deoxy (DNA)
Tested on: HeLa cells
Assay: Cell cycle assay in HeLa cells
Format: cell-based, human
Conditions: HeLa cells; for % cells in cell cycle phase: G1 / % cells in cell cycle phase: G2/M / % cells in cell cycle phase: S / % cells in cell cycle phase: aneuploid / % cells in cell cycle phase: subG1: 48 hours after treatment, relative to untreated control (UTC=100)
[1] = 150 nM oligomeric compound, 24 hours, relative to untreated control (UTC = 100)
[2] = 150 nM, 48 hours, relative to untreated control

| Substance | % cells aneuploid [1] | % cells in cell cycle phase G1 [1] | % cells in cell cycle phase G2/M [1] | % cells in cell cycle phase S [1] | % cells in cell cycle phase subG1 [1] | % cells in cell cycle phase: G1 (150 nM oligomeric compound) | % cells in cell cycle phase: G2/M (150 nM oligomeric compound) | % cells in cell cycle phase: S (150 nM oligomeric compound) | % cells in cell cycle phase: aneuploid (150 nM oligomeric compound) | % cells in cell cycle phase: subG1 (150 nM oligomeric compound) | % cells in cell cycle phase G1 [2] | % cells in cell cycle phase G2/M [2] | % cells in cell cycle phase S [2] | % cells in cell cycle phase aneuploid [2] | % cells in cell cycle phase subG1 [2] |
| --- | --- | --- | --- | --- | --- | --- | --- | --- | --- | --- | --- | --- | --- | --- | --- |
| 327906 (antisense eT*e[5mC]*eA*eT*eA*eG*e[5mC]*e[5mC]*e[5mC]*eT*eG*eT*eA*e[5mC]*eA*eA*eT*eG*e[5mC]*eT*eG*e[5mC]*eT) [compound 327906] | 65% | 153% | 107% | 47% | 228% | 100% | 103% | 98% | 83% | 57% |  |  |  |  |  |
| 327907 (antisense eA*eG*e[5mC]*e[5mC]*eT*eA*eT*e[5mC]*e[5mC]*eT*eG*eG*eA*eT*eT*eA*e[5mC]*eT*eT*eG*eA*eA) [compound 327907] | 75% | 119% | 111% | 77% | 224% | 92% | 115% | 111% | 94% | 116% |  |  |  |  |  |
| 327910 (antisense eT*eG*eA*eT*eA*eG*e[5mC]*e[5mC]*e[5mC]*eT*eG*eT*eA*e[5mC]*eA*eA*eT*eG*e[5mC]*eT*eG*e[5mC]*eT) [compound 327910] | 73% | 154% | 118% | 42% | 174% | 99% | 111% | 91% | 92% | 53% |  |  |  |  |  |
| 327911 (antisense eG*e[5mC]*eT*eA*e[5mC]*e[5mC]*eT*eG*e[5mC]*eA*e[5mC]*eT*eG*eT*eA*eA*eG*e[5mC]*eA*e[5mC]*eT*eT*eT*eT) [compound 327911] | 104% | 130% | 122% | 62% | 158% | 99% | 109% | 96% | 101% | 65% |  |  |  |  |  |
| 327919 (antisense eG*eA*eA*eA*e[5mC]*e[5mC]*e[5mC]*eA*eG*e[5mC]*eA*eG*eA*e[5mC]*eA*eA*eT*eG*eT*eA*eG*e[5mC]*eT) [compound 327919] | 96% | 92% | 109% | 103% | 85% | 80% | 139% | 122% | 104% | 104% |  |  |  |  |  |
| 327922 (antisense eT*e[5mC]*eA*eG*eT*eT*eT*eT*eG*e[5mC]*eA*eT*eG*eG*eA*eT*eT*eT*eG*e[5mC]*eA*e[5mC]*eA) [compound 327922] | 104% | 97% | 114% | 96% | 131% | 96% | 109% | 105% | 91% | 81% |  |  |  |  |  |
| 327933 (antisense eA*eA*eG*eG*eG*eA*eT*eT*e[5mC]*e[5mC]*eT*eG*eG*eG*eA*eA*eA*eA*e[5mC]*eT*eG*eG*eA*e[5mC]) [compound 327933] | 92% and 47% | 102% and 90% | 131% and 140% | 83% and 91% | 192% and 190% | 76% and 80% | 138% and 123% | 135% and 133% | 86% and 75% |  |  |  |  |  |  |
| 327934 (antisense eG*eG*eT*eA*e[5mC]*eA*eA*eT*e[5mC]*eA*eA*e[5mC]*eG*eG*eT*e[5mC]*eG*eA*eT*eG*eG*eT) [compound 327934] | 55% and 77% | 87% and 118% | 160% and 137% | 85% and 66% | 278% and 204% | 62% and 66% | 152% and 155% | 156% and 148% | 92% and 117% |  |  |  |  |  |  |
| 327956 (antisense e[5mC]*eA*e[5mC]*eA*eG*eT*eT*eG*e[5mC]*e[5mC]*eA*eG*e[5mC]*eT*eG*eA*eG*eA*eT*eT*eA) [compound 327956] | 61% | 124% | 120% | 68% | 120% | 91% | 121% | 106% | 110% | 184% |  |  |  |  |  |
| 328111 (antisense eT*e[5mC]*e[5mC]*eG*eA*eG*eT*e[5mC]*eG*eG*eA*eG*eG*eA*eG*eG*eA*eG*eG*eA*eA) [compound 328111] | 50% | 127% | 99% | 75% | 62% | 84% | 119% | 126% | 90% | 371% |  |  |  |  |  |
| 328115 (antisense eA*eG*eA*eA*eG*eG*eT*eG*eG*eG*eG*eA*eG*e[5mC]*eA*eG*e[5mC]*eG*eT*e[5mC]*eA) [compound 328115] | 59% | 90% | 147% | 87% | 177% | 92% | 107% | 114% | 86% | 195% |  |  |  |  |  |
| 328119 (antisense eA*eA*eT*eA*eA*e[5mC]*eA*e[5mC]*eA*e[5mC]*eA*eT*e[5mC]*e[5mC]*eA*e[5mC]*eT*eT*eT*eA*eA) [compound 328119] | 83% | 100% | 112% | 94% | 75% | 75% | 124% | 145% | 81% | 767% |  |  |  |  |  |
| 328136 (eA*eA*e[5mC]*eT*eA*e[5mC]*eT*eT*e[5mC]*e[5mC]*eA*eG*eA*eG*e[5mC]*eA*eG*eG*eT*eG*eA; anti-miR) [compound 328136] | 51% | 125% | 88% | 81% | 330% | 83% | 113% | 133% | 85% | 140% |  |  |  |  |  |
| 328362 (eT*eG*eT*eG*eT*dT*dT*dT*d[5mC]*dT*dG*dA*d[5mC]*dT*d[5mC]*eA*eG*eT*e[5mC]*eA) [compound 328362] | 66% | 101% | 126% | 87% | 114% | 96% | 108% | 104% | 97% | 87% |  |  |  |  |  |
| 328382 (e[5mC]*eA*eG*eA*e[5mC]*dT*d[5mC]*d[5mC]*d[5mC]*dA*dA*d[5mC]*dT*dG*dA*e[5mC]*e[5mC]*eA*eG*eA) [compound 328382] |  | 118% and 102% | 116% and 144% | 76% and 80% |  | 102% and 83% | 103% and 120% | 92% and 122% | 109% and 133% |  |  |  |  |  |  |
| 328759 (antisense eG*eA*eG*eG*eG*dA*dT*dT*dG*dT*dA*dT*dG*dA*dA*e[5mC]*eA*eT*e[5mC]*eT) [compound 328759] | 184% | 88% | 168% | 78% | 239% | 50% | 343% | 31% | 148% | 1744% | 40% | 203% | 82% | 223% | 797% |
| 340350 (antisense TGCTCAATAAATACCCGTTGAA; all 2'-MOE, all phosphorothioate, methylation of C not given here) [compound 340350] | 94% | 183% | 104% | 54% | 218% | 76% | 134% | 126% | 125% | 1144% | 101% | 112% | 94% | 177% | 132% |
